Results as given in US6194387A, “6-O-aklyl erythromycin B oxime” (Abbott Laboratories, priority 1999, dated 2001).
≈ marks a conversion by molar mass, not a printed value. Like-named read-outs stand apart in the source and are kept apart here.

Key:
[1] = system: ACINETOBACTER CALCOACETICUS; assay: in vitro antibacterial activity, agar dilution MIC; type: cell-based; details: Table 2, CMX 669, read-out: MIC
Protocol: (§1) 6-O-Methyl-9-oxime erythromycin B prepared in accordance with Examples 1 and 2 was assayed in vitro for anitbacterial activity as follows: Twelve petri dishes containing successive aqueous dilutions of the test compound mixed with 10 mL of sterilized Brain Heart Infusion (BHI) agar (Difco 0418-01-5) were prepared. Each plate was inoculated with 1:100 (or 1:10 for slow-growing strains, such as Micrococcus and Streptococcus) dilutions of up to 32 different micoorganisims, using a Steers replicatore block. The inoculated plates were incubated at 35-37° C. for 20 to 24 hours. In addition, a control plate, using BHI agar containing no test compound, was prepared and incubated at the beginning and end of each test.
(§2) An additional plate containing a compound having known susceptibility patterns for the organisms being tested and belonging to the same antibiotic class as the test compound was also prepared and incubated as further control, as well as to provide test-to-test comparability. Erythromycin A was used for this purpose.
(§3) After incubation, each disk was read. The minimum inhibitory concentration (MIC) was defined as the lowest concentration of drug yielding no growth, a slight haze, or sparsely isolated colonies on the inoculum spot as compared to the growth control.

EN[…] [2] = assay: in vitro antibacterial activity, agar dilution MIC; type: cell-based; details: Enterococcus faecium, ATCC8043
Protocol: as §1, §2, §3

HAEMOPHILUS INFLUENZAE = assay: in vitro antibacterial activity, agar dilution MIC; type: cell-based
Protocol: as §1, §2, §3

KLEBSIELLA PNEUMONIAE = assay: in vitro antibacterial activity, agar dilution MIC; type: cell-based; details: ATCC8045, Table 2, ATCC 8045, read-out: MIC
Protocol: as §1, §2, §3

MYCOBACTERIIUM SMEGMATIS = assay: in vitro antibacterial activity, agar dilution MIC; type: cell-based; details: Table 2; ATCC 114; read-out: MIC
Protocol: as §1, §2, §3

M[…] [3] = assay: in vitro antibacterial activity, agar dilution MIC; type: cell-based; details: Micrococcus luteus, ATCC4698
Protocol: as §1, §2, §3

NOCARDIA ASTEROIDES = assay: in vitro antibacterial activity, agar dilution MIC; type: cell-based; details: ATCC9970, Table 2, ATCC 9970, read-out: MIC
Protocol: as §1, §2, §3

PROVIDENCIA STUART II = assay: in vitro antibacterial activity, agar dilution MIC; type: cell-based; details: Table 2, CMX 640, read-out: MIC
Protocol: as §1, §2, §3

PSEUDOMONAS AERUGINOSA = assay: in vitro antibacterial activity, agar dilution MIC; type: cell-based
Protocol: as §1, §2, §3

PSEUDOMONAS CEPACIA = assay: in vitro antibacterial activity, agar dilution MIC; type: cell-based; details: Burkholderia cepacia; Table 2; 2961; read-out: MIC
Protocol: as §1, §2, §3

STAPHYLOCOCCUS AUREUS = assay: in vitro antibacterial activity, agar dilution MIC; type: cell-based
Protocol: as §1, §2, §3

STAPHYLOCOCCUS BOVIS = assay: in vitro antibacterial activity, agar dilution MIC; type: cell-based; details: Table 2, A-5169, read-out: MIC
Protocol: as §1, §2, §3

[4] = system: STAPHYLOCOCCUS EPIDERMIDIS; assay: in vitro antibacterial activity, agar dilution MIC; type: cell-based; details: Table 2, 3519, read-out: MIC
Protocol: as §1, §2, §3

[5] = system: STAPHYLOCOCCUS PNEUMONIAE; assay: in vitro antibacterial activity, agar dilution MIC; type: cell-based
Protocol: as §1, §2, §3

STAPHYLOCOCCUS PYOGENES = assay: in vitro antibacterial activity, agar dilution MIC; type: cell-based
Protocol: as §1, §2, §3

M[…] [6] = assay: in vitro antibacterial activity, agar dilution MIC; type: cell-based, Micrococcus pyogenes; details: Staphylococcus aureus, ATCC9341
Protocol: as §1, §2, §3

ESCHERICHIA COLI = assay: microbe, parasite or virus in culture; type: cell-based
Protocol: as §1, §2, §3

EN[…] [7] = assay: in vitro antibacterial activity, agar dilution MIC; type: cell-based, Enterobacter aerogenes; details: Klebsiella aerogenes, ATCC13048
Protocol: as §1, §2, §3

CANDIDA ALBICANS = assay: in vitro antimicrobial activity, agar dilution MIC; type: cell-based; details: Table 2, CCH 442, read-out: MIC
Protocol: as §1, §2, §3

micoorganisims = assay: in vitro antibacterial activity, overall conclusion; type: cell-based
Protocol: as §1, §2, §3

## CC[C@H]1OC(=O)[C@H](C)[C@@H](O[C@H]2C[C@@](C)(OC)[C@@H](O)[C@H](C)O2)[C@H](C)[C@@H](O[C@@H]2O[C@H](C)C[C@H](N(C)C)[C@H]2O)[C@](C)(OC)C[C@@H](C)C(=NO)[C@H](C)[C@@H](O)[C@H]1C [6-O-Methyl-9-oxime erythromycin B]
[1]
  MIC: 50 mg/L (≈ 66.9 µM)
EN[…] [2]
  MIC: 0.1 mg/L (≈ 0.134 µM)
HAEMOPHILUS INFLUENZAE; ATCC10211, Table 3, ATCC 10211, read-out: MIC
  MIC: 16 mg/L (≈ 21.4 µM)
HAEMOPHILUS INFLUENZAE; ATCC19418, Table 3, ATCC 19418, read-out: MIC
  MIC: 32 mg/L (≈ 42.8 µM)
HAEMOPHILUS INFLUENZAE; ATCC43095, Table 3, ATCC 43095, read-out: MIC
  MIC: 8 mg/L (≈ 10.7 µM)
HAEMOPHILUS INFLUENZAE; Table 3, CMX 503B, read-out: MIC
  MIC: 16 mg/L (≈ 21.4 µM)
HAEMOPHILUS INFLUENZAE; Table 3, CMX 504, read-out: MIC
  MIC: 16 mg/L (≈ 21.4 µM)
HAEMOPHILUS INFLUENZAE; Table 3, CMX 519A, read-out: MIC
  MIC: 16 mg/L (≈ 21.4 µM)
HAEMOPHILUS INFLUENZAE; Table 3, CMX 566A, read-out: MIC
  MIC: 16 mg/L (≈ 21.4 µM)
HAEMOPHILUS INFLUENZAE; Table 3, CMX 588A, read-out: MIC
  MIC: 16 mg/L (≈ 21.4 µM)
HAEMOPHILUS INFLUENZAE; Table 3, CMX 632A, read-out: MIC
  MIC: 8 mg/L (≈ 10.7 µM)
HAEMOPHILUS INFLUENZAE; Table 3, CMX 747C, read-out: MIC
  MIC: 16 mg/L (≈ 21.4 µM)
HAEMOPHILUS INFLUENZAE; Table 3, CMX 751, read-out: MIC
  MIC: 32 mg/L (≈ 42.8 µM)
HAEMOPHILUS INFLUENZAE; Table 3, GYR 1177, read-out: MIC
  MIC: 1 mg/L (≈ 1.34 µM)
HAEMOPHILUS INFLUENZAE; Table 3, GYR 1435, read-out: MIC
  MIC: 16 mg/L (≈ 21.4 µM)
HAEMOPHILUS INFLUENZAE; Table 3, SOL AMP R, read-out: MIC
  MIC: 16 mg/L (≈ 21.4 µM)
HAEMOPHILUS INFLUENZAE; Table 3, SPK AMP R, read-out: MIC
  MIC: 16 mg/L (≈ 21.4 µM)
KLEBSIELLA PNEUMONIAE
  MIC: > 100 mg/L
MYCOBACTERIIUM SMEGMATIS
  MIC: 0.39 mg/L (≈ 0.522 µM)
M[…] [3]
  MIC: 0.78 mg/L (≈ 1.04 µM)
NOCARDIA ASTEROIDES
  MIC: 0.1 mg/L (≈ 0.134 µM)
PROVIDENCIA STUART II
  MIC: > 100 mg/L
PSEUDOMONAS AERUGINOSA; Table 2, 5007, read-out: MIC
  MIC: > 100 mg/L
PSEUDOMONAS AERUGINOSA; Table 2, DPHD-2862, read-out: MIC
  MIC: > 100 mg/L
PSEUDOMONAS AERUGINOSA; Table 2, DPHD-5263, read-out: MIC
  MIC: > 100 mg/L
PSEUDOMONAS AERUGINOSA; Table 2, K799/61, read-out: MIC
  MIC: 1.56 mg/L (≈ 2.09 µM)
PSEUDOMONAS CEPACIA
  MIC: > 100 mg/L
STAPHYLOCOCCUS AUREUS; ATCC6538P, Table 2, ATCC 6538P, read-out: MIC
  MIC: 0.39 mg/L (≈ 0.522 µM)
STAPHYLOCOCCUS AUREUS; Table 2, A5177, read-out: MIC
  MIC: 6.2 mg/L (≈ 8.3 µM)
STAPHYLOCOCCUS AUREUS; Table 2, A-5278, read-out: MIC
  MIC: > 100 mg/L
STAPHYLOCOCCUS AUREUS; Table 2, CMX 553, read-out: MIC
  MIC: 0.78 mg/L (≈ 1.04 µM)
STAPHYLOCOCCUS AUREUS; Table 2, CMX 642A, read-out: MIC
  MIC: 0.78 mg/L (≈ 1.04 µM)
STAPHYLOCOCCUS AUREUS; Table 2, NCTC10649M, read-out: MIC
  MIC: 0.39 mg/L (≈ 0.522 µM)
STAPHYLOCOCCUS BOVIS
  MIC: 0.05 mg/L (≈ 0.0669 µM)
[4]
  MIC: 0.39 mg/L (≈ 0.522 µM)
[5]; Table 3, 5649, read-out: MIC
  MIC: 16 mg/L (≈ 21.4 µM)
[5]; Table 3, 5654, read-out: MIC
  MIC: 16 mg/L (≈ 21.4 µM)
[5]; Table 3, 5728, read-out: MIC
  MIC: > 128 mg/L
[5]; Table 3, 5737, read-out: MIC
  MIC: > 128 mg/L
[5]; Table 3, 5979, read-out: MIC
  MIC: > 128 mg/L
[5]; Table 3, GYR 1171, read-out: MIC
  MIC: 0.03 mg/L (≈ 0.0402 µM)
STAPHYLOCOCCUS PYOGENES; Table 2, 930
  MIC: > 100 mg/L
STAPHYLOCOCCUS PYOGENES; Table 2, EES61, read-out: MIC
  MIC: 0.02 mg/L (≈ 0.0268 µM)
STAPHYLOCOCCUS PYOGENES; Table 2, PIU 2548, read-out: MIC
  MIC: 6.2 mg/L (≈ 8.3 µM)
STAPHYLOCOCCUS PYOGENES; Table 3, 930, read-out: MIC
  MIC: > 128 mg/L
STAPHYLOCOCCUS PYOGENES; Table 3, EES61, read-out: MIC
  MIC: 0.03 mg/L (≈ 0.0402 µM)
STAPHYLOCOCCUS PYOGENES; Table 3, PIU 2548, read-out: MIC
  MIC: 16 mg/L (≈ 21.4 µM)
M[…] [6]
  MIC: 0.05 mg/L (≈ 0.0669 µM)
ESCHERICHIA COLI; Table 2, DC-2
  MIC: > 100 mg/L
ESCHERICHIA COLI; Table 2, H560
  MIC: 100 mg/L (≈ 134 µM)
ESCHERICHIA COLI; Table 2, JUHL
  MIC: 50 mg/L (≈ 66.9 µM)
ESCHERICHIA COLI; Table 2, KNK 437
  MIC: 100 mg/L (≈ 134 µM)
ESCHERICHIA COLI; Table 2, SS
  MIC: 0.78 mg/L (≈ 1.04 µM)
EN[…] [7]
  MIC: > 100 mg/L
CANDIDA ALBICANS
  MIC: > 100 mg/L
micoorganisims
  antibacterial activity (conclusion from Tables 2 and 3): effective antibacterial agent
